Source: US20260284143A1, “METHOD OF USING BIOACTIVE PEPTIDE FRACTION ISOLATED FROM CANARY SEED” (Purdue Research Foundation, priority 2023, published 2026)

Assays:
[1] = target: T1, pancreatic lipase type-VI (Sus scrofa, UniProt P00591); assay: Pancreatic lipase inhibition and jump dilution (residence time); type: biochemical
T1 sequence (P00591 1-450): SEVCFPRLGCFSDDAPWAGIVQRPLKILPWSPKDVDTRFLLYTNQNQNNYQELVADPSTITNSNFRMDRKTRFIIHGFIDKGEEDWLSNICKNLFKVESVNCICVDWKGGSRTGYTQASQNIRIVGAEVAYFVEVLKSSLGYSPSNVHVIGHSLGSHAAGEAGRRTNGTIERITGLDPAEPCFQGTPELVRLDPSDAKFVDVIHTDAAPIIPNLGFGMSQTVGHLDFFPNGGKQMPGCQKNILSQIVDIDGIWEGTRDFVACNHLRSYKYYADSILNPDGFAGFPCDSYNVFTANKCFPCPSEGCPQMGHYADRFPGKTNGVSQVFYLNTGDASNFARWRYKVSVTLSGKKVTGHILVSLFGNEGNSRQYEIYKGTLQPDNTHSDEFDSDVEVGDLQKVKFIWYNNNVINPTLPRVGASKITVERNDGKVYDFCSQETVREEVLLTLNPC
Experimental: Pancreatic lipase inhibition was measured according to the procedures described in our previous study. Briefly, samples, substrate, and pancreatic lipase were dis-solved in McIlvaine buffer (0.1 M Citrate-Na2HPO4, pH 7.4). Then, 50 μL of substrate 4-methylumbelliferyl oleate (1 mM) was pre-incubated with 25 μL of peptide sample for 10 min in a black 96-well microplate. Then, 25 μL of pancreatic lipase type-VI (200 U/mL) were pipetted, and the reaction was carried out for one hour. The production of 4-methylumbelliferone was measured fluorometrically using a Fluoroskan Ascent FL Microplate Fluorometer and Luminometer, ThermoFisher Scientific (Waltham, MA, USA) using an excitation wavelength of 355 nm and emission wavelength of 460 nm. The positive control (no inhibitor) used the buffer instead of the sample, and buffer was used instead of pancreatic lipase solution for negative control (no pancreatic lipase activity). Finally, a jump dilution experiment was carried out, as previously reported by Kumar and Lowery. Briefly, enzyme-inhibitor complexes were formed by pre-incubating the substrate, pancreatic lipase (6000 U/mL), and inhibitors (10×IC50) for three hours. […] Finally, the residence time was calculated by measuring tau determined as the reciprocal of koff after fitting the enzyme progress curves to Equation (1).

[2] = test system: C57BL/6J mice; assay: Serum biochemical analysis (TG, HDL, LDL/VLDL, total cholesterol); type: in vivo; settings: orlistat 40 mg/kg/day, 8 weeks, fasting serum
Experimental: Total serum high-density lipoprotein (HDL), low-density lipoprotein (LDL)/very low-density lipoprotein (VLDL), and total cholesterol levels were quantified with HDL, and LDL/VLDL Colorimetric/Fluorometric assay Kit (LSK314100) obtained from Lifespan Bioscience (Seattle, […], USA). The assays were carried out following the manufacturer's instructions, and the absorbance was measured using Multiskan™ FC Microplate Photometer (Waltham, MA, USA). In addition, serum triglyceride (TG) levels were measured using a triglyceride colorimetric kit (LSK302200) purchased from Lifespan Bioscience (Seattle, DC, USA).

[3] = test system: C57BL/6J mice; assay: Organ and epididymal fat weight; type: in vivo; settings: orlistat 40 mg/kg/day, 8 weeks, Western diet
Experimental: The total body weight gain (g/animal), daily feed intake (g/animal/day), and water consumption was monitored weekly throughout the study. The fecal collection was done per cage, separating fecal matter from bedding on a weekly basis and then stored at −80±3° C. until analysis. After the eight weeks of the study, animals were sacrificed by CO2 asphyxiation. Immediately after, blood was collected by cardiac puncture.

[4] = test system: C57BL/6J mice; assay: Fasting serum levels of metabolic hormones (ELISA); type: in vivo; settings: orlistat 40 mg/kg/day, 8 weeks
Experimental: Mouse serum was analyzed to quantify total serum ghrelin using a mouse enzyme-linked immunosorbent assay (ELISA) ghrelin kit (EIAM-GHR-1) obtained from Raybiotech (Norcross, GA, USA), serum leptin by mouse leptin Duoset ELISA kit (DY49805) obtained from R&D Systems (Minneapolis, MN, USA), serum adiponectin and insulin by commercial mouse ELISA kits (KMP0041 and EMINS) obtained from Thermo Fisher Scientific (Waltham, MA, USA). All assays were carried out following the manufacturer's instructions. Finally, the absorbances were quantified at 450 nm and turbidity corrections at 590 nm using Multiskan™ FC Microplate Photometer (Waltham, MA, USA).

[5] = test system: pancreatic lipase; settings: peptides identified from fractionated canary seed proteins; cited from earlier work

Compound: CCCCCCCCCCC[C@@H](C[C@@H]1OC(=O)[C@H]1CCCCCC)OC(=O)[C@H](CC(C)C)NC=O [orlistat]
- reversibility of pancreatic lipase inhibition ([1]; 30-fold jump dilution): slow reversibility
- inhibition of pancreatic lipase (PL) in pre-formed complexes ([1]; inhibitor 10×IC50, monitored for three hours): Complete inhibition
- serum TG concentration vs WD [2]: effective in lowering
- serum total cholesterol vs WD [2]: no difference
- Kidney weight [3]: 402.08 ± 7.43 a mg
- serum ghrelin concentration [4]: increased

Compound: LADR
- inhibitory activity towards pancreatic lipase [5]: high inhibitory activity

Compound: LSPR
- inhibitory activity towards pancreatic lipase [5]: high inhibitory activity

Compound: TVGPR
- inhibitory activity towards pancreatic lipase [5]: high inhibitory activity

Compound: VPPR
- inhibitory activity towards pancreatic lipase [5]: high inhibitory activity
